Reference: ChEMBL document CHEMBL5154787 (J Med Chem, 2022)

Tests used:
[1] = Drug concentration in STZ-induced diabetic peripheral neuropathic mechanical allodynia in overnight fasted Sprague-Dawley rat spinal cord at 1 mg/kg, po measured at 5.75 hrs post dose; format: ADME, organism-based; conditions: read-out: Ct
[2] = biological target: AP2-associated protein kinase 1 (Mus musculus, UniProt Q3UHJ0); experiment: Displacement of 3H-LP-927443 from AAK1 in C57BL6 mouse brain homogenate assessed as inhibition constant incubated for 1 hr by liquid scintillation counter analysis; format: tissue-based
[3] = Metabolic stability in rat liver microsomes assessed as parent compound remaining at 0.5 uM incubated for 10 mins in presence of NADPH by LC-MS/MS analysis; format: ADME, Microsome; conditions: read-out: Stability
Cytochrome P450 3A4 [4] = biological target: T1, Cytochrome P450 3A4 (Homo sapiens, UniProt P08684); experiment: Inhibition of CYP3A4 (unknown origin) incubated for 10 mins in presence of NADPH by LC-MS/MS analysis; format: ADME
[5] = Efflux ratio of permeability in human Caco-2 cells; format: ADME, cell-based
[6] = Half life in rat at 3 mg/kg, po or 2 mg/kg, iv; format: ADME, organism-based; conditions: in vivo
[7] = Oral bioavailability in rat at 3 mg/kg or 2 mg/kg,iv; format: ADME, organism-based; conditions: in vivo
[8] = Genotoxicity in Salmonella typhimurium by Ames test; format: toxicity; conditions: salmonella enterica subsp. enterica serovar typhimurium
[9] = Solubility of compound at pH 4 measured after 24 hrs; format: physicochemical; conditions: buffer
Rattus norvegicus = experiment: Analgesic activity in CCI induced tactile allodynia in Sprague-Dawley rat assessed as reduction in pain response at 3 mg/kg, po by Hargreaves test relative to control; format: functional; set-up: scale not given: the % may be the effect or the level left
[10] = Plasma concentration in CCI induced tactile allodynia in Sprague-Dawley rat at 3 mg/kg, po measured at 7.5 hrs post dose; format: ADME, organism-based
[11] = Drug concentration in CCI induced tactile allodynia in Sprague-Dawley rat spinal cord at 3 mg/kg, po measured at 7.5 hrs post dose; format: ADME, organism-based; conditions: read-out: Ct
[12] = Ratio of drug concentration in spinal cord to plasma in CCI induced tactile allodynia in Sprague-Dawley rat at 3 mg/kg, po measured at 7.5 hrs post dose; format: ADME, organism-based
[13] = Plasma concentration in STZ-induced diabetic peripheral neuropathic mechanical allodynia in overnight fasted Sprague-Dawley rat at 1 mg/kg, po measured at 5.75 hrs post dose; format: ADME, organism-based
[14] = Ratio of drug concentration in spinal cord to plasma in STZ-induced diabetic peripheral neuropathic mechanical allodynia in overnight fasted Sprague-Dawley rat at 1 mg/kg, po measured at 5.75 hrs post dose; format: ADME, organism-based
[15] = Permeability of compound at pH 5.5 incubated for 4 hrs by PAMPA assay; format: ADME; conditions: read-out: permeability
[16] = Permeability of compound at pH 7.4 incubated for 4 hrs by PAMPA assay; format: ADME; conditions: read-out: permeability
[17] = Permeability across basolateral to apical side in human Caco-2 cells; format: ADME, cell-based; conditions: read-out: permeability
[18] = Metabolic stability in rat liver microsomes assessed as half life incubated at 0.5 uM for 10 mins in presence of NADPH by LC-MS/MS analysis; format: ADME, Microsome
[19] = Metabolic stability in mouse liver microsomes assessed as half life incubated at 0.5 uM for 10 mins in presence of NADPH by LC-MS/MS analysis; format: ADME, Microsome; conditions: for half-life at 0.5 µM: liver microsomes
Cytochrome P450 1A2 = biological target: T2, Cytochrome P450 1A2 (Homo sapiens, UniProt P05177); experiment: Inhibition of CYP1A2 (unknown origin) incubated for 10 mins in presence of NADPH by LC-MS/MS analysis; format: ADME
T2 sequence (P05177 whole entry): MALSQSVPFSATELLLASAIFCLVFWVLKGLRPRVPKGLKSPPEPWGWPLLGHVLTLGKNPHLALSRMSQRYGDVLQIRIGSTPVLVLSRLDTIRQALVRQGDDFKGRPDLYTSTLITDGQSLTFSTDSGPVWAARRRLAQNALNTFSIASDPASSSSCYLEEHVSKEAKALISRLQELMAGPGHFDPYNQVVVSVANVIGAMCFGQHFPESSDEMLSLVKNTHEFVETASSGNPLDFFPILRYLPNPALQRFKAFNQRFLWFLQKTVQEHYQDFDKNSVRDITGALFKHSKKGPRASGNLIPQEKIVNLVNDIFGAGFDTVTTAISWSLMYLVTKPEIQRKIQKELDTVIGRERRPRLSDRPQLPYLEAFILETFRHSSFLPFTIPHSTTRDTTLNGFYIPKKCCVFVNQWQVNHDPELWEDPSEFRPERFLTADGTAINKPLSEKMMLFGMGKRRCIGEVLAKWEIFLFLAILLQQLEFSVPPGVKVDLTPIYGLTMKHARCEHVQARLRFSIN

Cytochrome P450 2C19 = Cytochrome P450 2C19 (Homo sapiens, UniProt P33261); experiment: Inhibition of CYP2C19 (unknown origin) incubated for 10 mins in presence of NADPH by LC-MS/MS analysis; format: ADME
Cytochrome P450 2D6 = Cytochrome P450 2D6 (Homo sapiens, UniProt P10635); experiment: Inhibition of CYP2D6 (unknown origin) incubated for 10 mins in presence of NADPH by LC-MS/MS analysis; format: ADME
[20] = biological target: Voltage-gated inwardly rectifying potassium channel KCNH2 (Homo sapiens, UniProt Q12809); experiment: Inhibition of human ERG by patch clamp assay; format: toxicity
[21] = biological target: MAP kinase-interacting serine/threonine-protein kinase 1 (Homo sapiens, UniProt Q9BUB5); experiment: Inhibition of MNK1 (unknown origin)
[22] = biological target: MAP kinase-interacting serine/threonine-protein kinase 2 (Homo sapiens, UniProt Q9HBH9); experiment: Inhibition of MNK2 (unknown origin)
[23] = biological target: Myosin light chain kinase 2, skeletal/cardiac muscle (Homo sapiens, UniProt Q9H1R3); experiment: Inhibition of MYLK2 (unknown origin)
[24] = Protein binding in mouse plasma assessed as unbound fraction measured after 3 hrs by LC/MS/MS analysis; format: ADME, cell-free
Cytochrome P450 3A4 [25] = biological target: T1, Cytochrome P450 3A4; experiment: Time dependent inhibition of […] (unknown origin) using BFC as substrate incubated for 5 mins in presence of NADPH by LC-MS/MS analysis; format: ADME
Cytochrome P450 3A4 [26] = biological target: T1, Cytochrome P450 3A4; experiment: Time dependent inhibition of […] (unknown origin) using BFC as substrate incubated for 30 mins in presence of NADPH by LC-MS/MS analysis; format: ADME
Cytochrome P450 3A4 [27] = biological target: T1, Cytochrome P450 3A4; experiment: Time dependent inhibition of […] (unknown origin) using MDZ as substrate incubated for up to 30 mins in presence of NADPH by LC-MS/MS analysis; format: ADME
Cytochrome P450 3A4 [28] = biological target: T1, Cytochrome P450 3A4; experiment: Time dependent inhibition of […] (unknown origin) using TST as substrate incubated for up to 30 mins in presence of NADPH by LC-MS/MS analysis; format: ADME
[29] = biological target: Sodium-dependent noradrenaline transporter (Homo sapiens, UniProt P23975); experiment: Inhibition of NET (unknown origin); format: toxicity
[30] = biological target: Neuronal acetylcholine receptor subunit alpha-7 (Homo sapiens, UniProt P36544); experiment: Inhibition of nicotinic acetylcholine receptor alpha 7 (unknown origin); format: toxicity
[31] = biological target: Solute carrier organic anion transporter family member 1B1 (Homo sapiens, UniProt Q9Y6L6); experiment: Inhibition of OATP1B1 (unknown origin)
[32] = biological target: ATP-binding cassette sub-family C member 2 (Homo sapiens, UniProt Q92887); experiment: Inhibition of MRP2 (unknown origin)

Sequence of MAP kinase-interacting serine/threonine-protein kinase 2 (Q9HBH9 whole entry): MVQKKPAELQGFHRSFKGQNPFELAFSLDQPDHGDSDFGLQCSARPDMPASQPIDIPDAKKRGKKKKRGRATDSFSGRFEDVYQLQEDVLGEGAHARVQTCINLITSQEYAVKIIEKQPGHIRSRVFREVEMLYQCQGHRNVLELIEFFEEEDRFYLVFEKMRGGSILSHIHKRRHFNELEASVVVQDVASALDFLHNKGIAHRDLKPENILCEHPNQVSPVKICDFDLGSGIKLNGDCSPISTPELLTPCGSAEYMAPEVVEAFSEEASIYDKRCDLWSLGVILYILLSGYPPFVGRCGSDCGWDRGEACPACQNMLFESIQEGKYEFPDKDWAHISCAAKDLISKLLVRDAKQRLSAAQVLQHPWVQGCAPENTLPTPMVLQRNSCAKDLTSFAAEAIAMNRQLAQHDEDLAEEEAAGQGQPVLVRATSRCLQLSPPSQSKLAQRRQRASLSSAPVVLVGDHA
Sequence of Cytochrome P450 2D6 (P10635 whole entry): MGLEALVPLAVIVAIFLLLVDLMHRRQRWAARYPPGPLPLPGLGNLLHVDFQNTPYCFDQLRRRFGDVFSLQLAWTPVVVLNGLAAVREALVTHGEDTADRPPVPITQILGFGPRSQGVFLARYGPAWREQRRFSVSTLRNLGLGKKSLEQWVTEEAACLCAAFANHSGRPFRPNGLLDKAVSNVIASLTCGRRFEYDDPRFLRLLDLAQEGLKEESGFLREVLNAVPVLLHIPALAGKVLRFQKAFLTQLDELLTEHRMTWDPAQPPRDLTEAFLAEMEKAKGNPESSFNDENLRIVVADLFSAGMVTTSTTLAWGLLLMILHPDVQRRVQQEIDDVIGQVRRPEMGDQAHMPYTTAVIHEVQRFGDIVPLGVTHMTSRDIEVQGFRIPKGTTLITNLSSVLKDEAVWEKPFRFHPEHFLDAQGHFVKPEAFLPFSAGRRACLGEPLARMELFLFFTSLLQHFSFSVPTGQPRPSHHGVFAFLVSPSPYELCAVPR
Sequence of AP2-associated protein kinase 1 (Q3UHJ0 whole entry): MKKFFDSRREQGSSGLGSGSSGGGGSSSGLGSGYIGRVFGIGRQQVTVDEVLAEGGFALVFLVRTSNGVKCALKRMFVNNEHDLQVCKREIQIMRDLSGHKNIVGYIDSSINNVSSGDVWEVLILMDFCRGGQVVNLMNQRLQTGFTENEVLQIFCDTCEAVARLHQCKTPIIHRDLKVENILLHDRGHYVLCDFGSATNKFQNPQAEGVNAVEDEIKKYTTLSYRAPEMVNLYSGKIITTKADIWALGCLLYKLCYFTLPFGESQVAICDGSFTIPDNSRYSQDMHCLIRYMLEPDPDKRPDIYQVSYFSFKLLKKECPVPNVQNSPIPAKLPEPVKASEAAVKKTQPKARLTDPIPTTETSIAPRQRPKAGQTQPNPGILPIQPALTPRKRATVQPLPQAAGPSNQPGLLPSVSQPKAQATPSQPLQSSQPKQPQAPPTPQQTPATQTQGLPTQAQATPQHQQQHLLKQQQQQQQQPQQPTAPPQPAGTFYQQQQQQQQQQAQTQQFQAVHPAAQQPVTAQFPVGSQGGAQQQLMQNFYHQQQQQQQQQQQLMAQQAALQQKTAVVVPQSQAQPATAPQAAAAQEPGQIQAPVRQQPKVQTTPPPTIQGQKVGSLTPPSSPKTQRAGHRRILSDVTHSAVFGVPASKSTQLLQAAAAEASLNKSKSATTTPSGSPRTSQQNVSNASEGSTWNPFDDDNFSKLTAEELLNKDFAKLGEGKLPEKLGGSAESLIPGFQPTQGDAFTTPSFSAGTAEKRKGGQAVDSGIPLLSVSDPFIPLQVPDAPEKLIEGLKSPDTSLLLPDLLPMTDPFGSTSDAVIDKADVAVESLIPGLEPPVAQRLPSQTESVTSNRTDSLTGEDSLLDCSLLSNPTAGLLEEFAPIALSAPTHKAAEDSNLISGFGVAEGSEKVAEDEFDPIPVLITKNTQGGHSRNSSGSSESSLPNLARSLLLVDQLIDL
T1 sequence (P08684 whole entry): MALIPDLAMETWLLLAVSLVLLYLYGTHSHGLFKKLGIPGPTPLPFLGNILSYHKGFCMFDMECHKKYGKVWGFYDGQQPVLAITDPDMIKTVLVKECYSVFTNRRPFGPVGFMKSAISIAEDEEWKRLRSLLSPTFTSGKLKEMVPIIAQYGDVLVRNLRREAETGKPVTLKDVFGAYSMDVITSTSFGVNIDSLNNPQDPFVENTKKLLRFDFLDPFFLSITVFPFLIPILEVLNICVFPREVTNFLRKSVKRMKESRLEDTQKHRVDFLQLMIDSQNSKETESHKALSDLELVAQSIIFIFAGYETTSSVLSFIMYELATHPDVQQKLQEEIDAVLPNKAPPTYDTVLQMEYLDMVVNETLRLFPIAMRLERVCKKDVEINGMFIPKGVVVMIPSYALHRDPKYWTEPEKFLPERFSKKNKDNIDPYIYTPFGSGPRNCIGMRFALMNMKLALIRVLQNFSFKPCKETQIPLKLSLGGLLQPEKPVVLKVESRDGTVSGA
Sequence of Cytochrome P450 2C19 (P33261 whole entry): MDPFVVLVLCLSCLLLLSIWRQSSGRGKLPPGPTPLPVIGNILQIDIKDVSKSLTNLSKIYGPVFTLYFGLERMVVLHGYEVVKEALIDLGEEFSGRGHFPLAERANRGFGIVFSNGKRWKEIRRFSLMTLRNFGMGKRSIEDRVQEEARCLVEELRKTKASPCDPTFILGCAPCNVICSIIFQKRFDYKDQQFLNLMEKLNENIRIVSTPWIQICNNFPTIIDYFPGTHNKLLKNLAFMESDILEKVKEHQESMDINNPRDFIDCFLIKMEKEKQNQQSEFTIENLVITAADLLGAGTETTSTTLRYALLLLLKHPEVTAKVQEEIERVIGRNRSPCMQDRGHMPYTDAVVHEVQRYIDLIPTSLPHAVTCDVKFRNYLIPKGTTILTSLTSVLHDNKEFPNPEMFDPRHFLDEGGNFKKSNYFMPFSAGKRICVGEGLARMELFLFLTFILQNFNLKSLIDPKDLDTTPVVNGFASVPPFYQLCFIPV
Sequence of MAP kinase-interacting serine/threonine-protein kinase 1 (Q9BUB5 whole entry): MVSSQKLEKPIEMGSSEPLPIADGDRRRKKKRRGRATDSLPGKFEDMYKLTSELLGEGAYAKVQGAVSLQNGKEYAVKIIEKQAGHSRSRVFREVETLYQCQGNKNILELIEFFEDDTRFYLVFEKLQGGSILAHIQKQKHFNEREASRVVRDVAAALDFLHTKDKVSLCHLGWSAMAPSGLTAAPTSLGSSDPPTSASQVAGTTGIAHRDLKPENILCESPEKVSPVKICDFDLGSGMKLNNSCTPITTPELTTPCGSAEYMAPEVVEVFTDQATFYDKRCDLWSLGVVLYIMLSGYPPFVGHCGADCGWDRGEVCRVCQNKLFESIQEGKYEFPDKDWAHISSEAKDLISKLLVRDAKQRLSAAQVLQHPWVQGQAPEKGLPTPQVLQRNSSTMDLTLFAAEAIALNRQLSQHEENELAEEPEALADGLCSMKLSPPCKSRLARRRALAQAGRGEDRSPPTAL
Sequence of Voltage-gated inwardly rectifying potassium channel KCNH2 (Q12809 whole entry): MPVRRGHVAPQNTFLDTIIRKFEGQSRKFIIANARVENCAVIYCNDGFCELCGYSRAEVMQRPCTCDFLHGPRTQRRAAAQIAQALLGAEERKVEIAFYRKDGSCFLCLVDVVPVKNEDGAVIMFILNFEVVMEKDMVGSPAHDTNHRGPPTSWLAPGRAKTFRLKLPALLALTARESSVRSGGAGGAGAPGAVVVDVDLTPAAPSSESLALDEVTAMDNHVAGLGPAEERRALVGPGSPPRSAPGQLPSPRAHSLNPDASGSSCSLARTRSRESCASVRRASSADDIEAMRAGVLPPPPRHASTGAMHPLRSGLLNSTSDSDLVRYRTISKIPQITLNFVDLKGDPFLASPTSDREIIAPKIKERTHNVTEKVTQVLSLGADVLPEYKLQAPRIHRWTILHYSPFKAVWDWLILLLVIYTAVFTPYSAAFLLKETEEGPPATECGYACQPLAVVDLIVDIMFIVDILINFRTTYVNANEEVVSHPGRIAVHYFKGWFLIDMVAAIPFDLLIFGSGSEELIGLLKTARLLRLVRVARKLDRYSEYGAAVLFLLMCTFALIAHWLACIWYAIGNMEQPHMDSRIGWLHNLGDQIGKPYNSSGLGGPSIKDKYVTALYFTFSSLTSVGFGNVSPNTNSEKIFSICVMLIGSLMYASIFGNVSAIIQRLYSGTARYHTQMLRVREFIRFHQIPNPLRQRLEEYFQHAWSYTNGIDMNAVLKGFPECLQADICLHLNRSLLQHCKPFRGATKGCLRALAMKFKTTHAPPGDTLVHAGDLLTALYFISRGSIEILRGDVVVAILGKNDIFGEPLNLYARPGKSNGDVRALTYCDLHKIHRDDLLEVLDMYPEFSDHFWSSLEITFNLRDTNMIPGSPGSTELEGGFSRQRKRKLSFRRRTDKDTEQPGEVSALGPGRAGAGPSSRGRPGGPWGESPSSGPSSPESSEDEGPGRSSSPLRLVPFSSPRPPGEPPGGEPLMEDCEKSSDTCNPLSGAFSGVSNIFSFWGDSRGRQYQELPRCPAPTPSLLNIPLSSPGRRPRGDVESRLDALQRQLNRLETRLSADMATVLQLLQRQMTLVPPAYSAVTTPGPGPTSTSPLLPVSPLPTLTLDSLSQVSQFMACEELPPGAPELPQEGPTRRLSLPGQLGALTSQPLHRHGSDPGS
Sequence of Neuronal acetylcholine receptor subunit alpha-7 (P36544 whole entry): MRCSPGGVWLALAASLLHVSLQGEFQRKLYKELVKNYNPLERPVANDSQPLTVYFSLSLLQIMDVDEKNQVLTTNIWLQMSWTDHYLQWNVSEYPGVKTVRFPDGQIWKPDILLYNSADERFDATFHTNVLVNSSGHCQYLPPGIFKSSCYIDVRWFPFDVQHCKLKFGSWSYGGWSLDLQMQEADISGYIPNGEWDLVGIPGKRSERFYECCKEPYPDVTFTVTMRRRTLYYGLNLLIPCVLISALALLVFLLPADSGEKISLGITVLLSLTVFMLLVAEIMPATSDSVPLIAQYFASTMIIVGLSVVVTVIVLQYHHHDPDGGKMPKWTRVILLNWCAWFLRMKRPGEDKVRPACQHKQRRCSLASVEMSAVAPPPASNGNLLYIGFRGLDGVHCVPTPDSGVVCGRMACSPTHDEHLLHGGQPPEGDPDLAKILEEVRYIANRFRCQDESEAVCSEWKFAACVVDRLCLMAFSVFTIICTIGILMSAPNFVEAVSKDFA

SMILES	concentration at 5.75 h [1] [nM]	Ki [2] [nM]	remaining at 10 min, 0.5 µM [3] [%]	IC50 (Cytochrome P450 3A4 [4]) [µM]	efflux ratio [5]	half-life [6] [h]	bioavailability [7] [%]	Activity [8]	Activity (Rattus norvegicus) [%]	concentration at 7.5 h [10] [nM]	concentration at 7.5 h [11] [nM]	Kp at 7.5 h [12]	Papp at 4 h [15] [×10⁻⁶ cm/s]	Papp at 4 h [16] [×10⁻⁶ cm/s]	Papp B→A [17] [×10⁻⁶ cm/s]	half-life at 0.5 µM [18] [h]	IC50 (Cytochrome P450 1A2) [µM]	IC50 (Cytochrome P450 2C19) [µM]	IC50 (Cytochrome P450 2D6) [µM]	IC50 [22] [µM]	other results
COC(=O)Nc1cc(-c2ccc(OC[C@@](C)(N)CC(C)C)c(C)n2)ccn1	213	0.29	95	> 20	1.1	11.3	94	Non-Toxic	80	500	4400	8.8	82.4	86.4	38.4	1.42	> 20	> 20	> 20	1.5	solubility at 24 h [9]: > 1000 µg/mL; concentration at 5.75 h [13]: 80 nM; Kp at 5.75 h [14]: 2.7; half-life at 0.5 µM [19]: 1.53 h; IC50 [20]: 5.9 µM; IC50 [21]: 0.19 µM; IC50 [23]: 1.8 µM
COC(=O)Nc1cc(-c2cnc(OC[C@@](C)(N)CC(C)C)c(C)c2)ccn1		0.21	83	> 20	1	7.55	77		60	140	720	5.1	56.5	69.7	17.3	0.7	> 20	> 20	> 20	1.3	fraction unbound at 3 h [24]: 0.049; t1/2 ([19]; microsomes, 10 min, 0.5 µM): 0.9 h; IC50 (Cytochrome P450 3A4 [25]): > 20 µM; IC50 (Cytochrome P450 3A4 [26]): > 20 µM; IC50 (Cytochrome P450 3A4 [27]): > 40 µM; IC50 (Cytochrome P450 3A4 [28]): > 40 µM; IC50 [29]: 5 µM; IC50 [30]: 4.5 µM
CC(C)C[C@](C)(N)COc1cnc(-c2ccnc(C(F)F)c2)cc1C(F)F	213	0.05	85	> 20	0.7	5.02	22	Non-Toxic					40.6	45.8	15.3	1.27	> 20	> 20	> 20	1.6	concentration at 5.75 h [13]: 80 nM; Kp at 5.75 h [14]: 2.7; fraction unbound at 3 h [24]: 0.065; half-life at 0.5 µM [19]: > 2 h; IC50 (Cytochrome P450 3A4 [25]): > 20 µM; IC50 (Cytochrome P450 3A4 [26]): > 20 µM; IC50 (Cytochrome P450 3A4 [27]): > 40 µM; IC50 (Cytochrome P450 3A4 [28]): > 40 µM; IC50 [20]: 1.3 µM; IC50 [29]: 1.8 µM; IC50 [30]: 4 µM; IC50 [31]: > 50 µM; IC50 [32]: > 50 µM; IC50 [21]: 0.26 µM; IC50 [23]: 0.45 µM
